{"source": "paper PMC11762167", "about": "“G Protein-Coupled Receptor 17 Inhibits Glucagon-like Peptide-1 Secretion via a Gi/o-Dependent Mechanism in Enteroendocrine Cells” (Biomolecules, 2024)", "type_in_all_cases": "cell-based", "key": {"[1]": {"molecular_target": "T1, hGPR17L (Homo sapiens, UniProt Q13304)", "T1 sequence (Q13304 whole entry)": "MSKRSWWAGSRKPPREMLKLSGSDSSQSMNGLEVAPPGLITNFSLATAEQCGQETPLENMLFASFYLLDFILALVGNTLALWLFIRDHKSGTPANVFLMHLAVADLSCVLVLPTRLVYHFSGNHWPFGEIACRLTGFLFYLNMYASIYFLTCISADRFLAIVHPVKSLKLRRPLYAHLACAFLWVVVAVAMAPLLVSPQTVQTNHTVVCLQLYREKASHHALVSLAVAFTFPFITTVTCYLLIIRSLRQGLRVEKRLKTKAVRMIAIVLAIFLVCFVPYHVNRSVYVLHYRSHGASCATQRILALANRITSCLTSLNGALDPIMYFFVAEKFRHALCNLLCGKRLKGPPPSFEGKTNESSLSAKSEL", "assay": "Calcium flux (Calcium 6) in GLUTag cells expressing hGPR17L", "set-up": "host or cells: GLUTag cells (murine enteroendocrine line), adenoviral transduction; Mean Diff. Ctl vs. hGPR17L: unit not given here", "settings": "for Mean Diff.: hGPR17L; for Mean Diff. (Tukey's multiple comparisons test, Figure 4C): hGPR17L-WT", "description": "(§1) GLUTag cells were maintained in Dulbecco’s Modified Eagle Medium (DMEM) supplemented with 10% fetal bovine serum and 1% penicillin–streptomycin in a humidified incubator at 37 °C and 5% CO2. For adenovirus transduction, GLUTag cells were seeded into poly-D-lysine coated 96-well plates or 4-chamber slides. The next day, cells were transduced with adenoviruses (100–1250 viral particles per cell at time of seeding) as indicated. After 24–30 h, adenovirus-containing media was changed to serum-free growth media for overnight serum starvation. The following day, GLUTag cells were used for cAMP or calcium signaling assays, GLP-1 secretion assays, or immunostaining and imaging.\nGLUTag cells were seeded into black, clear bottom, poly-D-lysine-coated 96-well plates. Cells were transduced and serum starved as specified above. Growth medium was then replaced with 100 μL/well assay buffer (HBSS, 20 mM HEPES, pH 7.4) and 100 μL/well Calcium 6 loading dye (R8190; Molecular Devices, San Jose, CA, USA). During dye loading, cells were incubated at 37 °C and 5% CO2 for 2 h. MDL29,951 or KCl was added to the wells and fluorescence (485 nm excitation, 525 nm emission, and 515 nm automatic emission cutoff) was measured using a Molecular Devices FlexStation3 (Molecular Devices) at 37 °C. For experiments with PTX, cells were pretreated with 100 ng/mL PTX overnight and 100 ng/mL PTX was included with Calcium 6 loading dye for calcium flux assays. For experiments with YM-254890, cells were pretreated for 30 min at 37 °C."}, "[2]": {"molecular_target": "T2, hGPR17S (Homo sapiens, UniProt Q13304)", "T2 construct": "host or cells: HEK293 cells (ATCC CRL-1573), transient transfection", "T2 sequence (Q13304 29-367)": "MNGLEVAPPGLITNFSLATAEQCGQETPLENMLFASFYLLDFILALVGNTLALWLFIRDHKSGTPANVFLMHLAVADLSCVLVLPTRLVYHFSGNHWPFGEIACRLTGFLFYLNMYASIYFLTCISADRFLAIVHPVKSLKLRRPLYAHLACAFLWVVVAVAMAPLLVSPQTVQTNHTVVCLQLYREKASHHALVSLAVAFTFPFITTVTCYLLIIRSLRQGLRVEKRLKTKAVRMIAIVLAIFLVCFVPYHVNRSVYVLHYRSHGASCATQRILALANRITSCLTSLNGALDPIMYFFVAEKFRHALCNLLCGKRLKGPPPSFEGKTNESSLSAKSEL", "assay": "Membrane β-arrestin recruitment in HEK293 cells transfected with hGPR17S", "description": "Membrane β-arrestin recruitment measurements were conducted using a luminescent membrane β-arrestin recruitment reporter assay. HEK293 cells were seeded into white, opaque, poly-D-lysine-coated 96-well plates and transiently transfected using Lipofectamine 3000 (Thermo Fisher Scientific, Waltham, MA, USA) according to the manufacturer’s protocol on the following day. At 48 h post-transfection, cells were washed twice with assay buffer (HBSS, 20 mM HEPES, pH 7.4) and allowed to equilibrate to room temperature for 15 min in assay buffer. Cells were then loaded with coelenterazine h (Nanolight Technology, Prolume Ltd., Lakeside, AZ, USA; 5 µM final concentration) for 5 min in the dark. Luminescence was read using a SpectraMax iD3 (Molecular Devices) with 1 s integration time. Baseline luminescence was read every 2 min for 6 min. Agonist was added and then luminescence was read every 2 min for 30 min."}, "[3]": {"molecular_target": "T1, hGPR17L", "assay": "Live-cell GloSensor cAMP in GLUTag cells transfected with hGPR17L", "set-up": "host or cells: GLUTag cells (murine enteroendocrine line), adenoviral transduction", "settings": "MDL29,951 alone or together with forskolin", "description": "(§2) Live-cell, real-time cAMP measurements were performed using Promega (Madison, WI, USA) GloSensor cAMP luminescent biosensor technology. Glosensor cAMP experiments were conducted as previously described in GLUTag cells and HEK293 cells."}, "[4]": {"molecular_target": "T1, hGPR17L", "assay": "GLP-1 secretion from GLUTag cells expressing hGPR17L", "set-up": "host or cells: GLUTag cells (murine enteroendocrine line), adenoviral transduction", "description": "as §1\nGLUTag cells were seeded into poly-D-lysine-coated 96-well plates and transduced with adenovirus as specified above and then tested for GLP-1 secretion. Medium was removed and cells were washed two times with GLP-1 secretion buffer (138 mM NaCl, 4.5 mM KCl, 4.2 mM NaHCO3, 2.5 mM CaCl2, 1.2 mM MgCl2, 10 mM HEPES, 1 mM glucose, and 0.1% bovine serum albumin, pH 7.4). Cells were stimulated for 2 h with indicated treatments diluted in GLP-1 secretion buffer for a total volume of 200 µL/well at 37 °C and 5% CO2. Plates were then centrifuged at 300× g for 1 min at 4 °C, and 75 µL of the supernatant was removed and frozen at −80 °C until subsequent GLP-1 quantification. Total GLP-1 was quantified using the Meso Scale Discovery Total GLP-1 V-PLEX kit (Rockville, MD, USA; K1503PD) according to manufacturer’s instructions. For PTX treatment conditions, cells were pretreated with 100 ng/mL PTX overnight. For experiments with YM-254890, cells were pretreated for 15 min at 37 °C and 5% CO2."}, "[5]": {"molecular_target": "T1, hGPR17L", "assay": "GloSensor cAMP in HEK293 cells transfected with hGPR17L", "set-up": "host or cells: GLUTag cells (murine enteroendocrine line), adenoviral transduction", "description": "HEK293 cells were maintained and transfected as previously described.\nas §2"}}, "data": [{"compound": "O=C(O)CCc1c(C(=O)O)[nH]c2cc(Cl)cc(Cl)c12", "note": "[MDL29,951]", "values": [{"measurement": "Mean Diff. Ctl vs. hGPR17L", "setting": "[1]; Figure 1B, Ctl vs. hGPR17L at log [MDL29,951] (M) -4.5", "value": -0.777}, {"measurement": "Mean Diff. Ctl vs. hGPR17L", "setting": "[1]; Figure 1B, Ctl vs. hGPR17L at log [MDL29,951] (M) -5.0", "value": -0.707}, {"measurement": "Mean Diff. Ctl vs. hGPR17L", "setting": "[1]; Figure 1B, Ctl vs. hGPR17L at log [MDL29,951] (M) -5.5", "value": -0.62}, {"measurement": "Mean Diff. Ctl vs. hGPR17L", "setting": "[1]; Figure 1B, Ctl vs. hGPR17L at log [MDL29,951] (M) -6.0", "value": -0.5407}, {"measurement": "Mean Diff. Ctl vs. hGPR17L", "setting": "[1]; Figure 1B, Ctl vs. hGPR17L at log [MDL29,951] (M) -6.4", "value": -0.458}, {"measurement": "Mean Diff. Ctl vs. hGPR17L", "setting": "[1]; Figure 1B, Ctl vs. hGPR17L at log [MDL29,951] (M) -6.9", "value": -0.31}, {"measurement": "Mean Diff. Ctl vs. hGPR17L", "setting": "[1]; Figure 1B, Ctl vs. hGPR17L at log [MDL29,951] (M) -7.4", "value": -0.206}, {"measurement": "Mean Diff. Ctl vs. hGPR17L", "setting": "[1]; Figure 1B, Ctl vs. hGPR17L at log [MDL29,951] (M) -7.9", "value": -0.06033}, {"measurement": "Mean Diff. Ctl vs. hGPR17L", "setting": "[1]; Figure 1B, Ctl vs. hGPR17L at log [MDL29,951] (M) -8.3", "value": -0.009667}, {"measurement": "Mean Diff. Ctl vs. hGPR17L", "setting": "[1]; Figure 1B, Ctl vs. hGPR17L at log [MDL29,951] (M) -8.8", "value": -0.002}, {"measurement": "Mean Diff.", "setting": "[1]; Figure 1B, log [MDL29,951] (M) -4.5 vs. Vehicle", "value": 0.758}, {"measurement": "Mean Diff.", "setting": "[1]; Figure 1B, log [MDL29,951] (M) -5.0 vs. Vehicle", "value": 0.6893}, {"measurement": "Mean Diff.", "setting": "[1]; Figure 1B, log [MDL29,951] (M) -5.5 vs. Vehicle", "value": 0.6163}, {"measurement": "Mean Diff.", "setting": "[1]; Figure 1B, log [MDL29,951] (M) -6.0 vs. Vehicle", "value": 0.538}, {"measurement": "Mean Diff.", "setting": "[1]; Figure 1B, log [MDL29,951] (M) -6.4 vs. Vehicle", "value": 0.47}, {"measurement": "Mean Diff.", "setting": "[1]; Figure 1B, log [MDL29,951] (M) -6.9 vs. Vehicle", "value": 0.3087}, {"measurement": "Mean Diff.", "setting": "[1]; Figure 1B, log [MDL29,951] (M) -7.4 vs. Vehicle", "value": 0.2053}, {"measurement": "Mean Diff.", "setting": "[1]; Figure 1B, log [MDL29,951] (M) -7.9 vs. Vehicle", "value": 0.06133}, {"measurement": "Mean Diff.", "setting": "[1]; Figure 1B, log [MDL29,951] (M) -8.3 vs. Vehicle", "value": 0.004667}, {"measurement": "Mean Diff.", "setting": "[1]; Figure 1B, log [MDL29,951] (M) -8.8 vs. Vehicle", "value": -0.001667}, {"measurement": "maximum peak ΔF/F, calcium flux", "setting": "[1]; GLUTag hGPR17L, Figure 1B", "value": "0.80 ± 0.07"}, {"measurement": "pEC50, calcium flux", "setting": "[1]; GLUTag hGPR17L, Figure 1B", "value": "6.66 ± 0.13"}, {"measurement": "EC50", "setting": "[1]; GLUTag hGPR17L, Figure 1B, read-out: potency (EC50), calcium flux", "value": 0.22, "unit": "µM"}, {"measurement": "shift in the EC50 of MDL29,951, calcium mobilization", "setting": "[1]; PTX-treated versus vehicle-treated cells", "value": 3, "unit": "fold"}, {"measurement": "Mean Diff. (Tukey's multiple comparisons test, Figure 4C)", "setting": "[1]; log [MDL29,951] (M) -4.5 vs. Vehicle", "value": 100.4}, {"measurement": "Mean Diff. (Tukey's multiple comparisons test, Figure 4C)", "setting": "[1]; log [MDL29,951] (M) -5.0 vs. Vehicle", "value": 91.26}, {"measurement": "Mean Diff. (Tukey's multiple comparisons test, Figure 4C)", "setting": "[1]; log [MDL29,951] (M) -5.5 vs. Vehicle", "value": 81.52}, {"measurement": "Mean Diff. (Tukey's multiple comparisons test, Figure 4C)", "setting": "[1]; log [MDL29,951] (M) -6.0 vs. Vehicle", "value": 71.5}, {"measurement": "Mean Diff. (Tukey's multiple comparisons test, Figure 4C)", "setting": "[1]; log [MDL29,951] (M) -6.4 vs. Vehicle", "value": 61.96}, {"measurement": "Mean Diff. (Tukey's multiple comparisons test, Figure 4C)", "setting": "[1]; log [MDL29,951] (M) -6.9 vs. Vehicle", "value": 41.28}, {"measurement": "Mean Diff. (Tukey's multiple comparisons test, Figure 4C)", "setting": "[1]; log [MDL29,951] (M) -7.4 vs. Vehicle", "value": 27.22}, {"measurement": "Mean Diff. (Tukey's multiple comparisons test, Figure 4C)", "setting": "[1]; log [MDL29,951] (M) -7.9 vs. Vehicle", "value": 8.591}, {"measurement": "Mean Diff. (Tukey's multiple comparisons test, Figure 4C)", "setting": "[1]; log [MDL29,951] (M) -8.3 vs. Vehicle", "value": 0.737}, {"measurement": "Mean Diff. (Tukey's multiple comparisons test, Figure 4C)", "setting": "[1]; log [MDL29,951] (M) -8.8 vs. Vehicle", "value": -0.2507}, {"measurement": "pEC50, calcium mobilization", "setting": "[1]; vehicle-treated cells, Figure 2C", "value": "6.34 ± 0.06"}, {"measurement": "EC50", "setting": "[1]; vehicle-treated cells, Figure 2C, read-out: EC50, calcium mobilization", "value": 0.44, "unit": "µM"}, {"measurement": "β-arrestin Emax (Peak ΔRLU/RLU)", "setting": "[2]", "value": "0.50±0.04"}, {"measurement": "β-arrestin Potency (pEC50)", "setting": "[2]", "value": "6.62±0.08"}, {"measurement": "EC50", "setting": "[2]; read-out: β-arrestin Potency EC50", "value": 0.24, "unit": "µM"}, {"measurement": "pattern of cAMP modulation, live-cell bioluminescent cAMP biosensor", "setting": "[3]", "value": "biphasic pattern"}, {"measurement": "concentration at which maximum inhibition of F/I-stimulated GLP-1 secretion was observed", "setting": "[4]", "value": 25, "unit": "µM"}, {"measurement": "effect on F/I-stimulated GLP-1 secretion", "setting": "[4]; 100 nM MDL29,951, 10 μM forskolin and 10 μM IBMX", "value": "no effect"}, {"measurement": "effect on GLP-1 secretion under basal conditions", "setting": "[4]; 100 nM or 100 µM MDL29,951, hGPR17L-transduced", "value": "no effect"}, {"measurement": "IC50", "setting": "[4]; 10 µM forskolin and 10 µM IBMX, no antagonist, read-out: IC50, inhibition of F/I-stimulated GLP-1 secretion", "value": 0.3, "unit": "µM"}, {"measurement": "inhibition of F/I-stimulated GLP-1 secretion", "setting": "[4]; 100 μM MDL29,951", "value": "30 ± 7.7", "unit": "%"}, {"measurement": "effect on PMA-stimulated GLP-1 secretion as compared to vehicle-treated cells (raw data)", "setting": "[4]; 100 µM MDL29,951, 300 nM PMA", "value": "significantly inhibited"}, {"measurement": "pIC50, inhibition of F/I-stimulated GLP-1 secretion", "setting": "[4]; no antagonist", "value": "6.53 ± 0.31"}, {"measurement": "cAMP Maximum Inhibition (% Inhibition)", "setting": "[5]; 3 µM forskolin", "value": "48±2.9", "unit": "%"}, {"measurement": "cAMP Potency (pEC50) (reversal of inhibition)", "setting": "[5]; 3 µM forskolin", "value": "5.40±0.09"}, {"measurement": "cAMP Potency (pIC50)", "setting": "[5]; 3 µM forskolin", "value": "8.52±0.08"}, {"measurement": "EC50", "setting": "[5]; 3 µM forskolin, read-out: cAMP Potency EC50 (reversal of inhibition)", "value": 4, "unit": "µM"}, {"measurement": "IC50", "setting": "[5]; 3 µM forskolin-stimulated GloSensor cAMP, read-out: cAMP Potency IC50", "value": 0.003, "unit": "µM"}, {"measurement": "cAMP Effect of 100 μM MDL (% Inhibition)", "setting": "[5]; 100 μM MDL29,951, 3 µM forskolin", "value": "9.0±2.1", "unit": "%"}]}]}
